The values that follow come from patent US5100914A, “Arylalkoxycoumarins” (BASF Aktiengesellschaft, priority 1988, dated 1992).

The conditions of assay [1]: J. Agric. Food Chem. 34 (2), 185-188; cited from earlier work.
The target in the next assay is T1, MAO A (Rattus norvegicus, UniProt P21396).
T1 construct: carried out in dilute rat brain homogenate; from tissue; host or cells: rat brain homogenate
T1 sequence (P21396 1-526): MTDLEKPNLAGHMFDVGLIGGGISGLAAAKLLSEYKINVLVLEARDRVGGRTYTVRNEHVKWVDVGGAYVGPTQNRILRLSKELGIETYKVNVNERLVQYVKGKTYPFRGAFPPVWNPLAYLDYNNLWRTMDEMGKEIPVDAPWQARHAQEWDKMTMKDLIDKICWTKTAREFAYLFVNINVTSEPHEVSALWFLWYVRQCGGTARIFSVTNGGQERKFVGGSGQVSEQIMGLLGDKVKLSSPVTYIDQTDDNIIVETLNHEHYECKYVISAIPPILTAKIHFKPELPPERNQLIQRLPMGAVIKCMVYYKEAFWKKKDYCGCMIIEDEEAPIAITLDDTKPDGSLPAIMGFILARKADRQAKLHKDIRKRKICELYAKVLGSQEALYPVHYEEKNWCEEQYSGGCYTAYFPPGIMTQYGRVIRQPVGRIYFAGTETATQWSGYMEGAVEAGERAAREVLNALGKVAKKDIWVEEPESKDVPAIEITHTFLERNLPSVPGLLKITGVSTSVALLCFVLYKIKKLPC
The assay can be described thus: determination of monoaminooxidase A inhibition in dilute rat brain homogenate. To be noted: 14C-phenylethylamine or 14C-tryptamine 0.4 μmol/l, 20 min, 37° C., logit-log regression, read-out: IC50 MAO A (mean inhibitory concentration). In kind it is biochemical. How it is done: (§1) The MAO-inhibiting activity of the novel compounds can be determined using standard methods. […] This mixture was incubated for 20 minutes at 37° C. […] The blank value was determined in similar mixtures with an incubation time of t =0 min.
(§2) From the inhibitory values determined at the various inhibitor concentrations against the controls, the mean inhibitory concentration (IC50) was calculated by linear regression following logit-log transformation.

The target in a further assay is T2, MAO B (Rattus norvegicus, UniProt P19643).
T2 construct: carried out in dilute rat brain homogenate; from tissue; host or cells: rat brain homogenate
T2 sequence (P19643 1-520): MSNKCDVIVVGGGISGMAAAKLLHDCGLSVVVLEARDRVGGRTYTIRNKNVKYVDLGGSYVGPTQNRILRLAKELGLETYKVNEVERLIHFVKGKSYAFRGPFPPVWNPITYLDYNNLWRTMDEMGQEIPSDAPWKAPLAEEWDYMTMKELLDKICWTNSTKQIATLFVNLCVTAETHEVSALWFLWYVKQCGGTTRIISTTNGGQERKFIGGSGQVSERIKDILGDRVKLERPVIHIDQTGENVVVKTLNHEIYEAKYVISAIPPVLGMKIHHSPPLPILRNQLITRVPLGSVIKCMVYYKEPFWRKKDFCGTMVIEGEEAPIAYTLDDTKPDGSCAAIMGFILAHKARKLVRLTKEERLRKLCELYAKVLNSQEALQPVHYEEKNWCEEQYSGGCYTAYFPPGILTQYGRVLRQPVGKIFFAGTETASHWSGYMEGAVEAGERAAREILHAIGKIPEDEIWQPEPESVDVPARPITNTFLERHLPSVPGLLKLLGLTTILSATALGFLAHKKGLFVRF
As to the kind of experiment: determination of monoaminooxidase B inhibition in dilute rat brain homogenate. In kind it is biochemical. As to conditions: 20 min; for IC50: 14C-phenylethylamine or 14C-tryptamine 0.4 μmol/l, 37° C., logit-log regression, read-out: IC50 MAO B (mean inhibitory concentration); for MAO B selectivity (IC50 MAO A / IC50 MAO B): selectivity ratio from the two IC50 values. How it is done: as §1, §2

As to `Cc1cc(=O)oc2cc(OCc3c(F)c(F)c(F)c(F)c3F)ccc12` [7-pentafluorophenylmethoxy-4-methylcoumarin], the fungicidal activity entry in assay [1] is given as “has fungicidal activity”.
Take `Cc1c(C)c2ccc(OCc3ccc4ccccc4c3)cc2oc1=O` [Example 4, 3,4-Dimethyl-7-(2-naphthyl)-methoxycoumarin]: the IC50 on MAO A was greater than 10 µM. Also, on MAO B, the IC50 is 0.011 µM and the “MAO B selectivity (IC50 MAO A / IC50 MAO B)” value is on record as greater than 900.
The matching figures for `Cc1ccc(C)c(COc2ccc3c(C)c(C)c(=O)oc3c2)c1` [Example 10, 3,4-Dimethyl-7-(2,5-dimethylphenyl)-methoxycoumarin]: greater than 10 µM, 0.0037 µM and greater than 2700.
Consider `CCc1cc2c(C)c(C)c(=O)oc2cc1OCCc1ccccc1` [Example 23, 6-Ethyl-3,4-dimethyl-7-(2-phenyl)-ethoxycoumarin], for which the IC50 on MAO A is greater than 10 µM. Further, on MAO B, the IC50 came to 0.013 µM and the “MAO B selectivity (IC50 MAO A / IC50 MAO B)” value was greater than 770.
The matching figures for `CC(C)c1ccc(COc2ccc3ccc(=O)oc3c2)cc1` [Example 26, 7-(4-Isopropylphenyl)-methoxycoumarin]: greater than 10 µM, 0.0018 µM and greater than 5600.
On to `Cc1cc(=O)oc2cc(OCc3ccc(C(C)C)cc3)ccc12` [Example 27, 4-Methyl-7-(4-isopropylphenyl)-methoxycoumarin], for which the IC50 at MAO A was greater than 10 µM. At MAO B, the IC50 amounted to 0.0047 µM and the “MAO B selectivity (IC50 MAO A / IC50 MAO B)” value is reported as greater than 2100.
For the molecule `Cc1cc2ccc(OCc3ccc(C(C)C)cc3)cc2oc1=O` [Example 28, 3-Methyl-7-(4-isopropylphenyl)-methoxycoumarin], the IC50 on MAO A was greater than 10 µM. For the same molecule, at MAO B, the IC50 was found to be 0.0028 µM and the “MAO B selectivity (IC50 MAO A / IC50 MAO B)” value is listed as greater than 3600.
For the molecule `Cc1c(Cl)c(=O)oc2cc(OCc3ccc(C(C)C)cc3)ccc12` [Example 33, 3-Chloro-4-methyl-7-(4-isopropylphenyl)-methoxycoumarin], the IC50 at MAO A was greater than 10 µM. For the same molecule, on MAO B, the IC50 came to 0.0043 µM and the “MAO B selectivity (IC50 MAO A / IC50 MAO B)” value was greater than 2400.
For `Cc1c(C)c2ccc(OCCCc3ccccc3)cc2oc1=O` [Example 35, 3,4-Dimethyl-7-(3-phenylpropoxy)-coumarin], the IC50 at MAO A amounted to 1.2 µM; at MAO B it was 0.0042 µM. For the same molecule, the “MAO B selectivity (IC50 MAO A / IC50 MAO B)” value on MAO B amounted to 280.
For the molecule `Cc1c(C)c2cc(Cl)c(OCc3ccc(C(C)C)cc3)cc2oc1=O` [Example 38, 6-Chloro-3,4-dimethyl-7-(4-isopropylphenyl)-methoxycoumarin], the IC50 on MAO A was greater than 10 µM. In addition, at MAO B, the IC50 came out at 0.031 µM and the “MAO B selectivity (IC50 MAO A / IC50 MAO B)” value is recorded as greater than 320.
